Assay results as given in ChEMBL document CHEMBL4219112, “Rational drug design and synthesis of new α-Santonin derivatives as potential COX-2 inhibitors” (Bioorg Med Chem Lett, 2018).
Active and inactive are the calls of the source. The calls are words filed in the database; no cut-off is given here.

Assays:
RIF-1 [1] = test: Inhibition of COX2 expression levels in PH-PDT-treated mouse RIF1 cells at 500 uM after 24 hrs by Western blot analysis; assay type: functional, cell-based
RIF-1 [2] = test: Inhibition of COX2 expression levels in PH-PDT-treated mouse RIF1 cells at 250 uM after 24 hrs by Western blot analysis; assay type: functional, cell-based
[3] = molecular target: T1, Prostaglandin G/H synthase 2 (Mus musculus) (UniProt Q05769); test: Inhibition of COX-2 in PH-PDT-treated mouse RIF1 cells assessed as suppression of PGE2 production at 250 uM after 24 hrs by spectrophotometric analysis
T1 sequence (whole entry): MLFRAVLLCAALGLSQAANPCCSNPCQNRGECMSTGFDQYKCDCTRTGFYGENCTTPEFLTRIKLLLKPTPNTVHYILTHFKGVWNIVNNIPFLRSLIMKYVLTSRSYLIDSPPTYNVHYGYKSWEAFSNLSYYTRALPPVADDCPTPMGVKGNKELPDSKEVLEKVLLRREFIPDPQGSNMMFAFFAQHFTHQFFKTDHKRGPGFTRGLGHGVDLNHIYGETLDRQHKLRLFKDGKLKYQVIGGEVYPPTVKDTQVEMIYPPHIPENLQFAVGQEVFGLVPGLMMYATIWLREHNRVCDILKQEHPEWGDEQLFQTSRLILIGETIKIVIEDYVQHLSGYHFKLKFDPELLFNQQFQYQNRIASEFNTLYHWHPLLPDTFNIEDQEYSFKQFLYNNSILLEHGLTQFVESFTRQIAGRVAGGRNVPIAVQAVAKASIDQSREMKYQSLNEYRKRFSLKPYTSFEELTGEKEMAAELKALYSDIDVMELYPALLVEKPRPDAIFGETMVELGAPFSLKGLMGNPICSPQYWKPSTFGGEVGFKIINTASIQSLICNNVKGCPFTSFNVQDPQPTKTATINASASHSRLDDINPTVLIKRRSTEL

RIF-1 [4] = test: Cytotoxicity against mouse RIF1 cells at 250 to 750 uM after 24 hrs; assay type: cell-based; conditions: rif-1, 24 h
[5] = molecular target: T1, Prostaglandin G/H synthase 2 (Mus musculus); test: Inhibition of COX-2 in PH-PDT-treated mouse RIF1 cells assessed as suppression of PGE2 production at 800 uM after 24 hrs by spectrophotometric analysis
RIF-1 [6] = test: Cytotoxicity against mouse RIF1 cells at 100 to 800 uM after 24 hrs; assay type: cell-based; conditions: rif-1, 24 h
RIF-1 [7] = test: Inhibition of COX2 expression levels in PH-PDT-treated mouse RIF1 cells at 800 uM after 24 hrs by Western blot analysis; assay type: functional, cell-based
[8] = molecular target: T1, Prostaglandin G/H synthase 2 (Mus musculus); test: Inhibition of COX-2 in PH-PDT-treated mouse RIF1 cells assessed as suppression of PGE2 production at 200 uM after 24 hrs by spectrophotometric analysis
RIF-1 [9] = test: Inhibition of COX2 expression levels in PH-PDT-treated mouse RIF1 cells at 400 uM after 24 hrs by Western blot analysis; assay type: functional, cell-based
[10] = molecular target: T1, Prostaglandin G/H synthase 2 (Mus musculus); test: Inhibition of COX-2 in PH-PDT-treated mouse RIF1 cells assessed as suppression of PGE2 production at 400 uM after 24 hrs by spectrophotometric analysis
[11] = molecular target: T1, Prostaglandin G/H synthase 2 (Mus musculus); test: Inhibition of COX-2 in PH-PDT-treated mouse RIF1 cells assessed as suppression of PGE2 production at 500 uM after 24 hrs by spectrophotometric analysis
RIF-1 [12] = test: Inhibition of COX2 expression levels in PH-PDT-treated mouse RIF1 cells at 750 uM after 24 hrs by Western blot analysis; assay type: functional, cell-based
[13] = molecular target: T1, Prostaglandin G/H synthase 2 (Mus musculus); test: Inhibition of COX-2 in PH-PDT-treated mouse RIF1 cells assessed as suppression of PGE2 production at 750 uM after 24 hrs by spectrophotometric analysis
RIF-1 [14] = test: Cytotoxicity against mouse RIF1 cells at 62.5 to 750 uM after 24 hrs; assay type: cell-based; conditions: rif-1, 24 h
RIF-1 [15] = test: Inhibition of COX2 expression levels in PH-PDT-treated mouse RIF1 cells at 62.5 uM after 24 hrs by Western blot analysis; assay type: functional, cell-based
RIF-1 [16] = test: Cytotoxicity against mouse RIF1 cells at 500 to 1000 uM after 24 hrs; assay type: cell-based; conditions: rif-1, 24 h
RIF-1 [17] = test: Cytotoxicity against mouse RIF1 cells at 50 to 800 uM after 24 hrs; assay type: cell-based; conditions: rif-1, 24 h

Q: For `Cc1cc(O)c(C)c2c1CC[C@H]1[C@H](C)C(=O)O[C@@H]21`, which inhibition (RIF-1 [1]) is on record?
A: Its inhibition is “Active”.

Q: What about the inhibition (RIF-1 [2]) of the same molecule?
A: Its inhibition is “inactive”.

Q: What about the inhibition [3] of the same molecule?
A: Its inhibition is “Active”.

Q: What about the Activity (RIF-1 [4]) of the same molecule?
A: Its Activity is “Non-Toxic”.

Q: For `CC(=O)Oc1cc(C)c2c(c1C)[C@@H]1OC(=O)[C@@H](C)[C@@H]1CC2`, which inhibition [5] is on record?
A: The inhibition was “inactive”.

Q: What about the Activity (RIF-1 [6]) of the same molecule?
A: Its Activity is “Non-Toxic”.

Q: And the inhibition (RIF-1 [7])?
A: The inhibition was “Active”.

Q: And the inhibition [8]?
A: Its inhibition is “Active”.

Q: What about the inhibition (RIF-1 [9]) of the same molecule?
A: Its inhibition is “inactive”.

Q: What about the inhibition [10] of the same molecule?
A: Its inhibition is “Active”.

Q: How did the inhibition [11] turn out when `Cc1cc(OCc2ccccc2)c(C)c2c1CC[C@H]1[C@H](C)C(=O)O[C@@H]21` was run?
A: Its inhibition is “Active”.

Q: And the inhibition (RIF-1 [1])?
A: Its inhibition is “Active”.

Q: What about the inhibition (RIF-1 [12]) of the same molecule?
A: Its inhibition is “Active”.

Q: What about the inhibition [13] of the same molecule?
A: The inhibition was “Active”.

Q: And the Activity (RIF-1 [14])?
A: The Activity was “Toxic”.

Q: What about the inhibition (RIF-1 [15]) of the same molecule?
A: The inhibition was “Active”.

Q: With `CC1=C2[C@@H]3OC(=O)[C@@H](C)[C@@H]3CC[C@@]2(C)C=CC1=O` as the molecule, how does the Activity (RIF-1 [16]) read?
A: Its Activity is “Non-Toxic”.

Q: What about the inhibition [11] of the same molecule?
A: Its inhibition is “Active”.

Q: And the inhibition (RIF-1 [1])?
A: Its inhibition is “Active”.

Q: How did the Activity (RIF-1 [17]) turn out when `Cc1cc(OCc2ccc(C(F)(F)F)cc2)c(C)c2c1CC[C@H]1[C@H](C)C(=O)O[C@@H]21` was run?
A: The Activity was “Non-Toxic”.

Q: What about the inhibition (RIF-1 [9]) of the same molecule?
A: The inhibition was “Active”.
